Measured values from patent US20250082651A1, “GANAXOLONE FOR USE IN TREATING GENETIC EPILEPTIC DISORDERS” (Marinus Pharmaceuticals, Inc., priority 2017, published 2025).
Values joined by “and” are separate entries in the source; they are usually repeats but may differ in a detail not shown here. Identical values can stand only once. “Also recorded” adds a separate entry of the source.

How the values were obtained:
female rats = assay: Pulmonary safety pharmacology in female rats; assay type: in vivo, rat; settings: doses up to 40 mg/kg
[1] = test system: children with CDKL5 Deficiency Disorder; assay: Phase 2 open-label trial, CDKL5 (CDD) cohort, seizure efficacy; assay type: in vivo, human
From the text: Example 3 concerns a Phase 2 Multicenter, Open-Label Proof-of-Concept Trial of ganaxolone (GNX) in cohorts of children having genetic epilepsies (PCDH19, CDKL5 LGS, and CSWS) (ClinicalTrials.gov Identifier: NCT02358538). There were 11 female children with PCDH19 epilepsy between 5-16 years old with a confirmed genetic mutation. There were 6 female and 1 male children with confirmed genetic mutations in the CDKL5 cohort. There were 10 children in the Lennox Gastaut Syndrome cohort. Two children with CSWS were enrolled into the study. The study was conducted with 12 weeks baseline, and up to 26 weeks of treatment followed by a 52 week open label treatment. The primary efficacy was the percentage change in seizure frequency per 28 days relative to baseline calculated using daily seizure diary. [Time Frame: 26 weeks]. Secondary Outcome Measures were: Clinician Global Impression of Change score as assessed by questionnaire. [Time Frame: 26 Weeks]; Patient Global Impression of Change score as assessed by questionnaire. [Time Frame: 26 Weeks]; Evaluation of safety and tolerability of open-label ganaxolone as adjunctive therapy for uncontrolled seizures in children with rare genetic epilepsies, based on adverse event log and other clinical safety assessments. [Time Frame: 26 weeks]; Responder rates [Time Frame: 26 weeks]; and Seizure free days [Time Frame: 26 weeks].
Following screening and baseline evaluations, consenting patients enrolled into a 26-week study during which investigators were allowed to flexibly dose ganaxolone up to a dose of 1,800 mg/day for patients whose body weight was >30 kg, or up to 63 mg/kg/day for patients whose body-weight was <30 kg. The primary efficacy measure is % change from baseline in the 28-day seizure frequency count. Safety and tolerability were within the secondary objectives of the study.
In this study, oral ganaxolone suspension or capsules were administered up to a total of 63 mg/kg/day (maximum 1800 mg/day) over 2-4 weeks. About six-eight titration steps are used, depending on the size of the patient. Children larger than 30 kg may take the ganaxolone capsules. The ganaxolone oral suspension was administered through an oral dosing syringe three times daily. The ganaxolone capsules were administered twice daily. The patients experience better absorption of the ganaxolone with meals (milk).
After establishing baseline seizure frequency, qualifying subjects entered the study and were treated with open-label ganaxolone oral suspension or ganaxolone capsules at doses up to a maximum of 1800 mg/day for up to 6 months. Maximum study participation was 94 weeks: a screening period up to 12 weeks to establish baseline seizure frequency, up to 26 weeks of treatment, a 52 week extension for subjects who benefited from ganaxolone treatment, and up to 4 weeks of down titration period. […] Refractive cases of LGS or CSWS that had prior response to steroid or ACTH could also have been enrolled.
Ganaxolone oral suspension was administered through an oral dosing syringe by parent or legal guardian 3 times daily (TID), following the morning, noon, and evening meal or snack. Each dose was separated by a minimum of 4 hours and a maximum of 8 hours. A missed dose of ganaxolone could have been taken up to 4 hours before the next scheduled dose; otherwise, the missed dose was not to be given.
Ganaxolone capsules were administered with a glass of water or other liquid 2 times daily (BID), following the morning and evening meal or snack. Ganaxolone was provided as either an oral suspension or capsules based on the subject's weight at study entry. Ganaxolone oral suspension was administered through an oral dosing syringe TID by a parent or guardian, following the morning, midday, and evening meal or snack. Each dose was separated by a minimum of 4 hours and a maximum of 8 hours. Ganaxolone capsules were administered BID, following the morning and evening meal or snack. […]

[2] = Multiple dose PK, 0.3 micron capsules 600, 800, 1000 mg BID escalating, healthy volunteers; assay type: in vivo, human; settings: for Cmax: steady state
Method: Multiple-dose studies of oral ganaxolone formulations were conducted in healthy volunteers. The 0.3 micron ganaxolone capsules were administered BID with a standard meal or snack for 7 days and at increasing doses.
Steady-state was reached within 3 days of administration of 600, 800 and 1000 mg BID ganaxolone to healthy subjects. The medium and high dose regimens were started after 3 days on the low dose and medium dose regimens, respectively. In general, ganaxolone was rapidly absorbed following PO administration and the mean Cmax was attained within 2 hours after multiple dosing; median Tmax was independent of dose level. […] Proportionality was conserved from 600 mg to 800 mg.
Values at Day 6.5, 9.5 and 12.5 are from evening samples collected 12 hrs after the last dose on PK sampling days. Subjects received 600 mg ganaxolone BID on Days 4-6; 800 mg ganaxolone BID on Days 7-9; and 1000 mg ganaxolone BID on Days 10-12.

[3] = Mass balance, single PO dose of 300 mg 14C-GNX in healthy male volunteers; assay type: in vivo; settings: human, plasma
From the text: The total plasma radioactivity concentrations achieved were much higher than GNX plasma levels in clinical studies with non-labelled GNX. […] Approximately 80% of the total radioactivity was excreted in faeces and urine by Day 14. […] PK parameters (mean±SD) of ^14C-GNX-derived total radioactivity in Healthy Male Volunteers (Study No. CA042 9402.01 [n=5]) are summarized in Table 22.

[4] = test system: subjects with focal onset seizure disorder; settings: post hoc, subjects taking 3 or more concomitant AEDs, p=0.02; cited from earlier work

With CC(=O)[C@H]1CC[C@H]2[C@@H]3CC[C@H]4C[C@](C)(O)CC[C@]4(C)[C@H]3CC[C@]12C [Ganaxolone, 3α-hydroxy-3β-methyl-5α-pregnan-20-one] the Pulmonary effects (female rats) was “No pulmonary effects”, the “Improvement in seizure free days, individual patients” value ([1]; 2 out of 4 completed CDKL5 patients) was 78% and 368% and the “Patients with >50% reduction in seizure counts” value ([1]; 4 completed CDKL5 patients) was 3 out of 4. The “Patients with increase/improvement in seizure-free days” value ([1]; 7 CDKL5 patients) was “Four of the 7; also recorded: Five of the 7”, the “Mean percent change in 28-day total seizure frequency from baseline to Week 26” value ([1]; CDD cohort, PP Population) was 20.55% and the “Median percent change in 28-day total seizure frequency from baseline to Week 26” value ([1]; CDD cohort, PP Population) was 37.70%. For the same molecule, the “Clinical global impression of improvement: much improved” value ([1]; CDD cohort, end of Week 26) was 3 subjects, the “Clinical global impression of improvement: very much improved” value ([1]; CDD cohort, end of Week 26) was 0 subjects and the Overall responder rate ([1]; CDKL5, 3 months (3/7 subjects)) was 43%. The Overall responder rate ([1]; CDKL5, 6 months (2/6 subjects)) was 33%, the “28-day seizure frequency, sum of individual seizures and clusters, post-baseline 26-week open-label period, Mean (SD)” value ([1]; CDKL5 N=7, MITT) was 137.70 and the “28-day seizure frequency, sum of individual seizures and clusters, post-baseline 26-week open-label period, Median” value ([1]; CDKL5 N=7, MITT) was 67.29. For the same molecule, the “28-day seizure frequency, sum of individual seizures and clusters, post-baseline through Month 3 (Day 91), Mean (SD)” value ([1]; CDKL5 N=7, MITT) was 129.78, the “28-day seizure frequency, sum of individual seizures and clusters, post-baseline through Month 3 (Day 91), Median” value ([1]; CDKL5 N=7, MITT) was 55.69 and the “Percent change from baseline (at Day 91), 28-day seizure frequency, sum of individual seizures and clusters, Mean (SD)” value ([1]; CDKL5 N=7, MITT) was 31.23% and −31.23%. For the same molecule, the “Percent change from baseline (at Day 91), 28-day seizure frequency, sum of individual seizures and clusters, Median” value ([1]; CDKL5 N=7, MITT) was 47.34% and −47.34%, the “Percent change from baseline (at Week 26), 28-day seizure frequency, sum of individual seizures and clusters, Mean (SD)” value ([1]; CDKL5 N=7, MITT) was 20.55% and −20.55% and the “Percent change from baseline (at Week 26), 28-day seizure frequency, sum of individual seizures and clusters, Median” value ([1]; CDKL5 N=7, MITT) was 37.70% and −37.70%. The “% change seizure rate-12 month, Mean” value ([1]; CDKL5 cohort, N=3) was −56.12%, the “% change seizure rate-12 month, Median” value ([1]; CDKL5 cohort, N=3) was −47.79% and the “Post-baseline 28-day seizure rate-12 month, Mean” value ([1]; CDKL5 cohort, N=3) was 114.39. For the same molecule, the “Post-baseline 28-day seizure rate-12 month, Median” value ([1]; CDKL5 cohort, N=3) was 76.54, the “% change seizure rate-3 month, Mean” value ([1]; CDKL5 cohort, N=7) was −32.67% and the “% change seizure rate-3 month, Median” value ([1]; CDKL5 cohort, N=7) was −49.99%. For the same molecule, the “% change seizure rate-6 month, Mean” value ([1]; CDKL5 cohort, N=7) was −16.81%, the “% change seizure rate-6 month, Median” value ([1]; CDKL5 cohort, N=7) was −47.80% and the “Post-baseline 28-day seizure rate-3-month, Mean” value ([1]; CDKL5 cohort, N=7) was 821.16. The “Post-baseline 28-day seizure rate-3-month, Median” value ([1]; CDKL5 cohort, N=7) was 57.87, the “Post-baseline 28-day seizure rate-6 month, Mean” value ([1]; CDKL5 cohort, N=7) was 1373.85 and the “Post-baseline 28-day seizure rate-6 month, Median” value ([1]; CDKL5 cohort, N=7) was 67.29. The “28-day individual seizure frequency, post-baseline 26-Week open-label period, Mean (SD)” value ([1]; CDKL5 n=7, MITT) was 103.70, the “28-day individual seizure frequency, post-baseline 26-Week open-label period, Median” value ([1]; CDKL5 n=7, MITT) was 67.29 and the “28-day individual seizure frequency, post-baseline through Month 3 (Day 91), Mean (SD)” value ([1]; CDKL5 n=7, MITT) was 103.69. For the same molecule, the “28-day individual seizure frequency, post-baseline through Month 3 (Day 91), Median” value ([1]; CDKL5 n=7, MITT) was 53.82, the “Percent change from baseline (at Day 91), 28-day individual seizure frequency, Mean (SD)” value ([1]; CDKL5 n=7, MITT) was −30.33% and the “Percent change from baseline (at Day 91), 28-day individual seizure frequency, Median” value ([1]; CDKL5 n=7, MITT) was −46.64%. For the same molecule, the “Percent change from baseline (at Week 26), 28-day individual seizure frequency, Mean (SD)” value ([1]; CDKL5 n=7, MITT) was −21.06%, the “Percent change from baseline (at Week 26), 28-day individual seizure frequency, Median” value ([1]; CDKL5 n=7, MITT) was −38.10% and the “Median percent reduction in seizures” value ([1]; children with CDKL5 disorder) was 43%. For the same molecule, the “Reduction in seizure counts, individual patients” value ([1]; completed CDKL5 patients with >50% reduction) was 52% and 59% and 88%, the “Patients with improvement in seizure control that persists for up to 6 months” value ([1]; first 6 CDKL5 patients, preliminary) was 3 of 6 and the Time to steady-state ([2]; 600, 800 and 1000 mg BID, 0.3 micron capsules) was ≤ 3 days. The “Mean fluctuation at steady-state” value ([2]; 600 to 1000 mg BID) was 172% to 191%, the Cmax ([2]; human, plasma, oral, 600 mg BID, 0.3 micron capsules) was 224 ng/mL and the Cmax ([2]; human, plasma, oral, 800 mg BID, 0.3 micron capsules) was 263 ng/mL. For the same molecule, the Cmax ([2]; human, plasma, oral, 1000 mg BID, 0.3 micron capsules) was 262 ng/mL, the clearance ([2]; human, plasma, oral, 600 to 1000 mg BID, read-out: Mean apparent total body CL at steady-state) was 10200 to 12800 mL/min and the “Dose through which pharmacokinetics are linear” value ([2]; immediate release 0.3-micron particles, given BID) was “approximately 1200 mg/day”. The Half-life [3] was ~25 h and the “Greater reduction in median seizure frequency than placebo” value [4] was 20%.
